Laboratory results: BindingDB's records for doi:10.1016/j.bmcl.2005.04.064 (Semmelweis University, 2005)

Molecular target: SRPK1 (Homo sapiens)
Test: In vitro inhibition of SR protein kinase 1 by compound dissolved in 100% DMSO using 5''-[gamma-33P]-triphosphate

O=C(O)c1ccc2cc3nc(-c4cccs4)c(-c4cccs4)nc3cc2c1 [2,3-Di-thiophen-2-yl-benzo[g]quinoxaline-7-carboxylic acid]
IC50: 40 nM

c1csc(-c2nc3cc4ccccc4cc3nc2-c2cccs2)c1 [2,3-Di-thiophen-2-yl-benzo[g]quinoxaline]
IC50: 1360 nM

Oc1cc2nc(-c3cccs3)c(-c3cccs3)nc2cc1O [2,3-Di-thiophen-2-yl-quinoxaline-6,7-diol]
IC50: 9610 nM

O=C(O)CCc1ccc(-c2nc3cc4ccccc4cc3nc2-c2ccc(CCC(=O)O)s2)s1 [3-(5-{3-[5-(2-Carboxy-ethyl)-thiophen-2-yl]-benzo[g]quinoxalin-2-yl}-thiophen-2-yl)-propionic acid]
IC50: 870 nM

COC(=O)CCc1ccc(-c2nc3cc4ccccc4cc3nc2-c2ccc(CCC(=O)OC)s2)s1 [3-(5-{3-[5-(2-Methoxycarbonyl-ethyl)-thiophen-2-yl]-benzo[g]quinoxalin-2-yl}-thiophen-2-yl)-propionic acid methyl ester]
IC50: 6130 nM

O=C(O)CCCc1ccc(-c2nc3cc4ccccc4cc3nc2-c2ccc(CCCC(=O)O)s2)s1 [4-(5-{3-[5-(3-Carboxy-propyl)-thiophen-2-yl]-benzo[g]quinoxalin-2-yl}-thiophen-2-yl)-butyric acid]
IC50: 820 nM

O=C(O)C1COc2cc3nc(-c4cccs4)c(-c4cccs4)nc3cc2O1 (stereo unspecified) [6,7-Di-thiophen-2-yl-2,3-dihydro-1,4-dioxa-5,8-diaza-anthracene-2-carboxylic acid]
IC50: 950 nM

c1csc(-c2nc3cc4c(cc3nc2-c2cccs2)OCCO4)c1 [6,7-Di-thiophen-2-yl-2,3-dihydro-1,4-dioxa-5,8-diaza-anthracene]
IC50: 23400 nM

COc1cc2nc(-c3cccs3)c(-c3cccs3)nc2cc1OC [6,7-Dimethoxy-2,3-di-thiophen-2-yl-quinoxaline]
IC50: 16300 nM

COc1cc2nc3nc(-c4cccs4)c(-c4cccs4)nc3nc2cc1OC [7,8-Dimethoxy-2,3-di-thiophen-2-yl-pyrazino[2,3-b]quinoxaline]
IC50: 1140 nM

COC(=O)Cc1csc(-c2nc3cc4ccccc4cc3nc2-c2cc(CC(=O)OC)cs2)c1 [{5-[3-(4-Methoxycarbonylmethyl-thiophen-2-yl)-benzo[g]quinoxalin-2-yl]-thiophen-3-yl}-acetic acid methyl ester]
IC50: 11800 nM
